Data on 22 compounds can be found in patent US10875855B2 (priority 2011, dated 2020).

In experiment [1] the test system is influenza A virus (A/PR/8/34). The experiment is described as follows: MDCK cytopathic effect (CPE) cell protection assay, ATP detection. In kind it is cell-based. In general terms: Cytopathic effects are the visible damage that an infection or toxin causes in cultured cells.
The test system of experiment [2] is influenza A virus (A/PR/8/34). Nature of the experiment: microbe, parasite or virus in culture. In kind it is cell-based.
The mark [3] stands for this setting: Influenza A virus, PR/8, MDCK, 72 h, Table 1, MDCK cells, A/PR/8/34, 72 hours, 50% cell protection, mean all, class symbol, read-out: MDCK IC50.
Setting [4] is: Influenza A virus, PR/8, Table 1, mean all, class symbol, read-out: bDNA EC99.
[5] abbreviates: Influenza A virus, PR/8, Table 1, viral RNA 50% of control wells, mean all, class symbol, read-out: bDNA EC50.
[6] abbreviates: Table 1, mean all, class symbol.

Like-named read-outs stand apart in the source and are kept apart here.

In general, IC50 refers to the midpoint of a concentration-inhibition curve. By EC99 is commonly meant the point of the concentration-response curve where the effect stands at 99%. A word on the EC50: it is the concentration at which the effect is half-maximal. As to `CC(C)(C)C(CCO)Nc1nc(-c2c[nH]c3ncc(F)cc23)c(C#N)cc1F` (racemic) [Compound 41, (+/−)-5-fluoro-2-(5-fluoro-1H-pyrrolo[2,3-b]pyridin-3-yl)-6-(1-hydroxy-4,4-dimethylpentan-3-ylamino)pyridine-3-carbonitrile], the IC50 in experiment [1] (setting [3]) was under 300 nM. The concentration for an effect of 99% (EC99) in experiment [2] (setting [4]) fell in the range of 0.3 to 3.3 µM. In experiment [2] (setting [5]), the EC50 is under 300 nM.
As for `O=C(O)CC(Nc1nc(-c2c[nH]c3ncc(F)cc23)ncc1F)C1CCC1` (racemic) [Compound 44, (+/−)-3-cyclobutyl-3-((5-fluoro-2-(5-fluoro-1H-pyrrolo[2,3-b]pyridin-3-yl)pyrimidin-4-yl)amino)propanoic acid], the IC50 in experiment [1] (setting [3]) is under 300 nM. Further, the EC99 in experiment [2] (setting [4]) lay in the range of 0.3 to 3.3 µM. The EC50 in experiment [2] (setting [5]) is 300 to 3300 nM.
The like results for `CC(C)(C)C(CCO)Nc1nc(-c2c[nH]c3ncc(F)cc23)ncc1F` (racemic) [Compound 45, (+/−)-3-((5-fluoro-2-(5-fluoro-1H-pyrrolo[2,3-b]pyridin-3-yl)pyrimidin-4-yl)amino)-4,4-dimethylpentan-1-ol] were, in that order, 300 to 3300 nM, over 3.3 µM and under 300 nM.
The like results for `CC(C)(C)C(Cc1nn[nH]n1)Nc1nc(-c2c[nH]c3ncc(F)cc23)ncc1F` (racemic) [Compound 55, (+/−)-N-(3,3-dimethyl-1-(2H-tetrazol-5-yl)butan-2-yl)-5-fluoro-2-(5-fluoro-1H-pyrrolo[2,3-b]pyridin-3-yl)pyrimidin-4-amine] were, in that order, under 300 nM, 0.3 to 3.3 µM and under 300 nM.
The like results for `CC(C)(C)C(Cc1cc(O)no1)Nc1nc(-c2c[nH]c3ncc(F)cc23)ncc1F` (racemic) [Compound 62, (+/−)-5-(2-((5-fluoro-2-(5-fluoro-1H-pyrrolo[2,3-b]pyridin-3-yl)pyrimidin-4-yl)amino)-3,3-dimethylbutyl)isoxazol-3-ol] were, in that order, under 300 nM, 0.3 to 3.3 µM and 300 to 3300 nM.
Regarding `CC(C)(C)C(Cc1nc(=O)o[nH]1)Nc1nc(-c2c[nH]c3ncc(F)cc23)ncc1F` (racemic) [Compound 65, (+/−)-3-(2-((5-fluoro-2-(5-fluoro-1H-pyrrolo[2,3-b]pyridin-3-yl)pyrimidin-4-yl)amino)-3,3-dimethylbutyl)-1,2,4-oxadiazol-5(2H)-one], the IC50 in experiment [1] (setting [3]) is under 300 nM. Besides, the EC99 in experiment [2] (setting [4]) is 0.3 to 3.3 µM. In experiment [2] (setting [5]), the EC50 was under 300 nM.
Take `O=C(O)CC(Nc1nc(-c2c[nH]c3ncc(F)cc23)ncc1F)C1(C(F)(F)F)CCCC1` (racemic) [Compound 75, (+/−)-3-(5-fluoro-2-(5-fluoro-1H-pyrrolo[2,3-b]pyridin-3-yl)pyrimidin-4-ylamino)-3-(1-(trifluoromethyl)cyclopentyl)propanoic acid]: in experiment [1] (setting [3]), the IC50 was over 3300 nM. Further, the EC99 in experiment [2] (setting [4]) is over 3.3 µM. Further, in experiment [2] (setting [5]), the EC50 was in the range of 300 to 3300 nM.
In the case of `CC(C)(CF)C(CC(=O)O)Nc1nc(-c2c[nH]c3ncc(F)cc23)ncc1F` (racemic) [Compound 76, (+/−)-5-Fluoro-3-((5-fluoro-2-(5-fluoro-1H-pyrrolo[2,3-b]pyridin-3-yl)pyrimidin-4-yl)amino)-4,4-dimethylpentanoic acid], the IC50 is 300 to 3300 nM in experiment [1] (setting [3]) and 423 nM in experiment [1] (Influenza A virus, PR/8, MDCK, exemplary data, MDCK cell protection, read-out: IC50). The EC99 was 0.3 to 3.3 µM in experiment [2] (setting [4]) and 1.4 µM in experiment [2] (exemplary data, bDNA). For the same compound, the EC50 in experiment [2] (setting [5]) was under 300 nM; in experiment [2] (Influenza A virus, PR/8, exemplary data, bDNA, read-out: EC50), 250 nM.
Consider `CCOC(=O)CC(Nc1nc(-c2c[nH]c3ncc(F)cc23)ncc1F)C1(C)CCCCC1` (racemic) [Compound 77, (+/−)-ethyl 3-(5-fluoro-2-(5-fluoro-1H-pyrrolo[2,3-b]pyridin-3-yl)pyrimidin-4-ylamino)-3-(1-methylcyclohexyl)propanoate], for which the IC50 in experiment [1] (setting [3]) was over 3300 nM. Besides, the EC99 in experiment [2] (setting [4]) was over 3.3 µM. In addition, in experiment [2] (setting [5]), the EC50 lay in the range of 300 to 3300 nM.
As to `CC(C)(C(CC(=O)O)Nc1nc(-c2c[nH]c3ncc(F)cc23)ncc1F)C(F)(F)F` (racemic) [Compound 79, (+/−)-5,5,5-Trifluoro-3-(5-fluoro-2-(5-fluoro-1H-pyrrolo[2,3-b]pyridin-3-yl)pyrimidin-4-ylamino)-4,4-dimethylpentanoic acid], the IC50 in experiment [1] (setting [3]) is 300 to 3300 nM. Moreover, the EC99 in experiment [2] (setting [4]) fell in the range of 0.3 to 3.3 µM. The EC50 in experiment [2] (setting [5]) was under 300 nM.
Take `CC1(C(CC(=O)O)Nc2nc(-c3c[nH]c4ncc(Cl)cc34)ncc2F)CCCCC1` (racemic) [Compound 83, (+/−)-3-(2-(5-Chloro-1H-pyrrolo[2,3-b]pyridin-3-yl)-5-fluoropyrimidin-4-ylamino)-3-(1-methylcyclohexyl)propanoic acid]: the IC50 in experiment [1] (setting [3]) is 300 to 3300 nM. The EC99 in experiment [2] (setting [4]) was in the range of 0.3 to 3.3 µM. The concentration giving a half-maximal response (EC50) in experiment [2] (setting [5]) is under 300 nM.
Take `CC(CF)(CF)C(CC(=O)O)Nc1nc(-c2c[nH]c3ncc(F)cc23)ncc1F` (racemic) [Compound 84, (+/−)-5-Fluoro-3-((5-fluoro-2-(5-fluoro-1H-pyrrolo[2,3-b]pyridin-3-yl)pyrimidin-4-yl)amino)-4-(fluoromethyl)-4-methylpentanoic acid]: in experiment [1] (setting [3]), the IC50 lay within 300 to 3300 nM. Besides, in experiment [2] (setting [4]), the EC99 was over 3.3 µM. The EC50 in experiment [2] (setting [5]) is 300 to 3300 nM.
Regarding `CC(C)(C)C(CC(=O)O)Nc1nc(-c2c[nH]c3ncc(F)cc23)ncc1Cl` (racemic) [Compound 85, (+/−)-3-((5-chloro-2-(5-fluoro-1H-pyrrolo[2,3-b]pyridin-3-yl)pyrimidin-4-yl)amino)-4,4-dimethylpentanoic acid], the IC50 in experiment [1] (setting [3]) was in the range of 300 to 3300 nM. In addition, the concentration for an effect of 99% (EC99) in experiment [2] (setting [4]) was over 3.3 µM. Also, in experiment [2] (setting [5]), the EC50 is under 300 nM.
The like results for `O=C(O)CC(Nc1nc(-c2c[nH]c3ncc(F)cc23)ncc1F)C12CC3CC(CC(C3)C1)C2` (racemic) [Compound 86, (+/−)-3-(1-Adamantyl)-3-[[5-fluoro-2-(5-fluoro-1H-pyrrolo[2,3-b]pyridin-3-yl)pyrimidin-4-yl]amino]propionic acid] were, in that order, under 300 nM, 0.3 to 3.3 µM and under 300 nM.
The corresponding values for `O=C(O)CC(Nc1nc(-c2c[nH]c3ncc(F)cc23)ncc1F)C1(C(F)(F)F)CC1` (racemic) [Compound 93, (+/−)-3-((5-Fluoro-2-(5-fluoro-1H-pyrrolo[2,3-b]pyridin-3-yl)pyrimidin-4-yl)amino)-3-(1-(trifluoromethyl)cyclopropyl)propanoic acid] are 300 to 3300 nM, over 3.3 µM and 300 to 3300 nM.
The corresponding values for `O=C(O)CC(Nc1nc(-c2c[nH]c3ncc(Cl)cc23)ncc1F)C12CC3CC(CC(C3)C1)C2` (racemic) [Compound 94, (+/−)-3-(1-Adamantyl)-3-[[2-(5-chloro-1H-pyrrolo[2,3-b]pyridin-3-yl)-5-fluoro-pyrimidin-4-yl]amino]propanoic acid] are under 300 nM, under 0.3 µM and under 300 nM.
As to `O=C(O)CC(Nc1nc(-c2c[nH]c3ncc(F)cc23)ncc1F)C12CCC(CC1)C2` (racemic) [Compound 95, (+/−)-3-(Bicyclo[2.2.1]heptan-1-yl)-3-(5-fluoro-2-(5-fluoro-1H-pyrrolo[2,3-b]pyridin-3-yl)pyrimidin-4-ylamino)propanoic acid], the IC50 in experiment [1] (setting [3]) is under 300 nM. Also, in experiment [2] (setting [4]), the concentration for an effect of 99% (EC99) was 0.3 to 3.3 µM. In addition, the EC50 in experiment [2] (setting [5]) is under 300 nM.
Take `CC(C)(C)C(Nc1nc(-c2c[nH]c3ncc(F)cc23)ncc1F)C1CC1C(=O)O` (single isomer, unassigned) [Compound 51, 2-(1-((5-fluoro-2-(5-fluoro-1H-pyrrolo[2,3-b]pyridin-3-yl)pyrimidin-4-yl)amino)-2,2-dimethylpropyl)cyclopropanecarboxylic acid]: in experiment [1] (setting [3]), the IC50 was under 300 nM. The EC50 in experiment [2] (setting [5]) is under 300 nM. In addition, in experiment [2] (setting [6]), the “bDNA EC99 (uM)” value is given as “C (EC99 (mean all)>3.3 μM)”.
In the case of `CC(C)(C)C(Nc1nc(-c2c[nH]c3ncc(F)cc23)ncc1F)C1CC1C(=O)O` (single isomer, unassigned) [Compound 52, 2-(1-((5-fluoro-2-(5-fluoro-1H-pyrrolo[2,3-b]pyridin-3-yl)pyrimidin-4-yl)amino)-2,2-dimethylpropyl)cyclopropanecarboxylic acid], in experiment [1] (Table 1, MDCK cells, A/PR/8/34, 72 hours, 50% cell protection, mean all, class symbol, read-out: MDCK IC50), the IC50 is under 300 nM. Besides, in experiment [2] (setting [6]), the “bDNA EC99 (uM)” value was “B (0.3 μM≤EC99 (mean all)≤3.3 μM)”. Further, the EC50 in experiment [2] (Table 1, viral RNA 50% of control wells, mean all, class symbol, read-out: bDNA EC50) was under 300 nM.
On to `CC(C)(C)[C@H](CC(=O)O)Nc1nc(-c2c[nH]c3ncc(Cl)cc23)ncc1F` [Compound 3, (S)-3-((2-(5-chloro-1H-pyrrolo[2,3-b]pyridin-3-yl)-5-fluoropyrimidin-4-yl)amino)-4,4-dimethylpentanoic acid], for which the IC50 in experiment [1] (setting [3]) fell in the range of 300 to 3300 nM. For the same compound, in experiment [2] (setting [4]), the concentration for an effect of 99% (EC99) was over 3.3 µM. Further, the EC50 in experiment [2] (setting [5]) was in the range of 300 to 3300 nM.
On to `CC(C)(C)[C@H](CC(=O)O)Nc1nc(-c2c[nH]c3ncc(F)cc23)ncc1F` [Compound 4, (S)-3-((5-fluoro-2-(5-fluoro-1H-pyrrolo[2,3-b]pyridin-3-yl)pyrimidin-4-yl)amino)-4,4-dimethylpentanoic acid], for which the IC50 in experiment [1] (setting [3]) was over 3300 nM. Besides, the EC99 in experiment [2] (setting [4]) is over 3.3 µM. Further, the EC50 in experiment [2] (setting [5]) is over 3300 nM.
Regarding `CC(C)(C)[C@@H](CC(=O)O)Nc1nc(-c2n[nH]c3ncc(F)cc23)ncc1F` [Compound 5, (R)-3-((5-fluoro-2-(5-fluoro-1H-pyrazolo[3,4-b]pyridin-3-yl)pyrimidin-4-yl)amino)-4,4-dimethylpentanoic acid], the IC50 in experiment [1] (setting [3]) is under 300 nM. Further, in experiment [2] (setting [4]), the EC99 was under 0.3 µM. For the same compound, in experiment [2] (setting [5]), the EC50 was under 300 nM.
